Molecules are shown by their SMILES. Counter-ions that a name gives are not always drawn. Bounds are passed on as bounds.

This note sets out measurements from patent EP0367124A1, “Penicillanic acid derivatives” (F. HOFFMANN-LA ROCHE AG, priority 1988, dated 1990).

Common to all, as to test: In vitro MIC, Agar Well Diffusion Method
Common to all, as to format: cell-based

Assay [1] concerns Pseudomonas aeruginosa 56M. The following applies: Culture Pseudomonas aeruginosa 56M. From the text:
(§1) The in vitro activity of compounds of the present invention as measured by the Minimum Inhibitory Concentration (MIC) in micrograms per milliliter (mcg/ml), utilizing the Agar Well Diffusion Method, against a variety of Gram-negative microorganisms is illustrated in the following Table, in which the compounds evaluated were as follows: • Compound A: [2S-[2α,3α,5α,6β(R*)]]-6-[[[[(4-Ethyl-2,3-dioxo-1-piperazinyl)carbonyl]amino]phenylacetyl]amino]-3-methyl-3-[[(1-methyl-1H-tetrazole-5-yl)thio]methyl]-7-oxo-4-thia-1-azabicyclo[3.2.0]-heptane-2-carboxylic acid monosodium salt sesquihydrate • Compound B: [2S-(2α,3α,5α,6β)]-3-Methyl-3-[[(1-methyl-1H-tetrazol-5-yl)-thio]methyl-7-oxo-6-[(phenylacetyl)amino]-4-thia-1-azabicyclo[3.2.0] heptane-2-carboxylic acid monosodium salt • Compound C: [2S-[2α,3α,5α,6β(Z)]]-6-[[(2-Amino-4-thiazolyl)-(methoxyimino)-acetyl]amino]-3-methyl -3-[[(1-methyl-1H-tetrazol-5-yl)thio]methyl]-7-oxo-4-thia-1-azabicyclo[3.2.0]heptane-2-carboxylic acid monosodium salt • Compound D: [2S-(2α,3α,5α,6β)]-3-(Azidomethyl)-3-methyl-7-oxo-6-[(phenylacetyl)amino]-4-thia-1-azabicyclo-[3.2.0]heptane-2-carboxylic acid monosodium salt • Compound E: [2S-(2α,3α,5α,6β)]-1-[[2-carboxy-3-methyl-7-oxo-6-[(phenylacetyl)amino]-4-thia-1-azabicyclo-[3.2.0]hept-3-yl]methylpyridinium hydroxide inner salt • Compound F: [2S-(2α,3α,5α,6β)]-3-[[(2,5-Dihydro-6-hydroxy-2-methyl-5-oxo-1,2,4-triazine-3-yl)thio] -methyl]-3-methyl-7-oxo-6-[(phenylacetyl)amino]-4-thia-1-azabicyclo[3.2.0]heptane-2-carboxylic acid disodium salt • Compound G: [2S-(2α,3α,5α,6β)]-3-[(Acetylthio)-methyl]-3-methyl-7-oxo-6-[(phenylacetyl)amino]-4-thia-1-azabicyclo[3.2.0]heptane-2-carboxylic acid monosodium salt • Compound H: [2S-(2α,3α,5α,6β)]-3-[[[3,4-bis(Acetyloxy)benzoyl]oxy]methyl]-3-methyl-7-oxo-6-[(phenylacetyl)amino]-4-thia-1-azabicyclo[3.2.0]heptane-2-carboxylic acid monosodium salt

Assay [2] deals with Streptococcus faecium ATCC 8043. The settings on record: for MIC: Enterococcus faecium, ATCC8043, Culture Streptococcus faecium ATCC 8043.
Description: as §1

Assay [3] has as its system Proteus vulgaris 101N ATCC 6380. The following applies: for MIC: ATCC6380, Culture Proteus vulgaris 101N ATCC 6380.
Description: as §1

Assay [4] deals with Micrococcus luteus PCI ATCC 9341. The following applies: for MIC: ATCC9341, Culture Micrococcus luteus PCI ATCC 9341.
Description: as §1

For another assay, the system named is Escherichia coli 3082B. The settings on record: Culture Escherichia coli 3082B.
Description: as §1

In another assay the test system is Escherichia coli 2722B. The settings on record: Culture Escherichia coli 2722B.
Description: as §1

Assay [5] deals with Bacillus megaterium 164 ATCC 8011. The following applies: for MIC: Priestia megaterium, ATCC8011, Culture Bacillus megaterium 164 ATCC 8011.
Description: as §1

Assay [6] deals with Bacillus subtilus 558 NRRL 558. The settings on record: for MIC: NRRL558, Culture Bacillus subtilus 558 NRRL 558.
Description: as §1

Assay [7] concerns Staphylococcus aureus 3647B. The following applies: Culture Staphylococcus aureus 3647B.
Description: as §1

The test system of another assay is Escherichia coli 2721B. The settings on record: Culture Escherichia coli 2721B.
Description: as §1

Assay [8] concerns Staphylococcus aureus 82 ATCC 6538P. The settings on record: Culture Staphylococcus aureus 82 ATCC 6538P; for MIC: ATCC6538P.
Description: as §1

For assay [9], the system named is Pseudomonas aeruginosa 56 ATCC 8079. The settings on record: for MIC: ATCC8079, Culture Pseudomonas aeruginosa 56 ATCC 8079.
Description: as §1

A further assay deals with Escherichia coli 3081B. The settings on record: Culture Escherichia coli 3081B.
Description: as §1

A further assay relates to Escherichia coli 1269B. The settings on record: Culture Escherichia coli 1269B.
Description: as §1

Another assay deals with Proteus vulgaris 100. The settings on record: Culture Proteus vulgaris 100.
Description: as §1

In assay [10] the test system is Staphylococcus aureus 3037B. The following applies: Culture Staphylococcus aureus 3037B.
Assay [11] has as its system Staphylococcus aureus 1059B. The following applies: Culture Staphylococcus aureus 1059B.
For assay [12], the system named is Pseudomonas maltophilia 28978 ATCC 17445. The settings on record: Stenotrophomonas maltophilia, ATCC17445, Culture Pseudomonas maltophilia 28978 ATCC 17445.
Description: as §1

With `Cn1nc([O-])c(=O)nc1SC[C@@]1(C)S[C@@H]2[C@H](NC(=O)Cc3ccccc3)C(=O)N2[C@H]1C(=O)[O-].[Na+].[Na+]` [Compound F, [2S-(2α,3α,5α,6β)]-3-[[(2,5-Dihydro-6-hydroxy-2-methyl-5-oxo-1,2,4-triazine-3-yl)thio] -methyl]-3-methyl-7-oxo-6-[(phenylacetyl)amino]-4-thia-1-azabicyclo[3.2.0]heptane-2-carboxylic acid disodium salt], the “In Vitro MIC” value is 0.49 µg/mL in assay [1]; 62.5 µg/mL in assay [2] (Culture Streptococcus faecium ATCC 8043); 7.8 µg/mL in assay [3] (Culture Proteus vulgaris 101N ATCC 6380); 0.24 µg/mL in assay [4] (Culture Micrococcus luteus PCI ATCC 9341); 0.98 µg/mL with Escherichia coli 3082B; 3.9 µg/mL in the assay with Escherichia coli 2722B. Further, the “In Vitro MIC” value in [5] (Culture Bacillus megaterium 164 ATCC 8011) was 0.12 µg/mL; in assay [6] (Culture Bacillus subtilus 558 NRRL 558), 0.12 µg/mL; in assay [7], 500 µg/mL; in the assay on Escherichia coli 2721B, 31.3 µg/mL; in assay [8], 0.24 µg/mL; in [9] (Culture Pseudomonas aeruginosa 56 ATCC 8079), 31.5 µg/mL. Moreover, the “In Vitro MIC” value in the assay on Escherichia coli 3081B came to 125 µg/mL; in the assay on Escherichia coli 1269B, 500 µg/mL; with Proteus vulgaris 100, 250 µg/mL; in assay [10], 500 µg/mL; in assay [11], 0.24 µg/mL.
As a reminder, the MIC is the lowest concentration found to suppress growth. A higher MIC goes with a less susceptible organism. Consider `CC(=O)SCC1(C)SC2C(NC(=O)Cc3ccccc3)C(=O)N2C1C(=O)O` (stereo not drawn) [Compound G, [2S-(2α,3α,5α,6β)]-3-[(Acetylthio)methyl]-3-methyl-7-oxo-6-[(phenylacetyl)amino]-4-thia-1-azabicyclo[3.2.0]heptane-2-carboxylic acid monosodium salt], for which the MIC in assay [1] was 0.98 µg/mL; in assay [2] it was 0.98 µg/mL; in assay [3], 31.3 µg/mL; in assay [4], 0.06 µg/mL; against Escherichia coli 3082B it was 1.95 µg/mL; in [12], more than 500 µg/mL. Besides, the MIC against Escherichia coli 2722B is 7.8 µg/mL; in assay [6], 0.03 µg/mL; in assay [7], 250 µg/mL; against Escherichia coli 2721B, 62.5 µg/mL; in assay [8], 0.03 µg/mL; in [9] it was 125 µg/mL. For the same molecule, the MIC in the assay with Escherichia coli 3081B is 500 µg/mL; against Proteus vulgaris 100 it was more than 500 µg/mL; in assay [10], 250 µg/mL; in assay [11] it was 0.98 µg/mL.
On to `Cn1nnnc1SCC1(C)SC2C(NC(=O)Cc3ccccc3)C(=O)N2C1C(=O)O` (stereo not drawn) [Compound B, [2S-(2α,3α,5α,6β)]-3-Methyl-3-[[(1-methyl-1H-tetrazol-5-yl)-thio]methyl-7-oxo-6-[(phenylacetyl)amino]-4-thia-1-azabicyclo[3.2.0]heptane-2-carboxylic acid monosodium salt], for which the MIC is 0.98 µg/mL in assay [1]; 7.8 µg/mL in assay [2]; 15.6 µg/mL in assay [3]; 0.03 µg/mL in assay [4]; 31.3 µg/mL against Escherichia coli 3082B; more than 125 µg/mL in assay [12]. Also, the MIC in the assay with Escherichia coli 2722B came to 31.3 µg/mL; in assay [5], 0.015 µg/mL; in [6], 0.03 µg/mL; in assay [7] it was 125 µg/mL; against Escherichia coli 2721B, 62.5 µg/mL; in [8], 0.03 µg/mL. In addition, the MIC was 62.5 µg/mL in assay [9]; more than 125 µg/mL in the assay on Escherichia coli 3081B; more than 125 µg/mL against Escherichia coli 1269B; more than 125 µg/mL in the assay with Proteus vulgaris 100; 125 µg/mL in [10]; 3.9 µg/mL in [11].
Take `CCN1CCN(C(=O)NC(C(=O)NC2C(=O)N3C2SC(C)(CSc2nnnn2C)C3C(=O)O)c2ccccc2)C(=O)C1=O` (stereo not drawn) [Compound A, [2S-[2α,3α,5α,6β(R*)]]-6-[[[[(4-Ethyl-2,3-dioxo-1-piperazinyl)carbonyl]amino]phenylacetyl]amino]-3-methyl-3-[[(1-methyl-1H-tetrazole-5-yl)thio]methyl]-7-oxo-4-thia-1-azabicyclo[3.2.0]-heptane-2-carboxylic acid monosodium salt sesquihydrate]: the MIC in assay [1] turned out to be 0.49 µg/mL; in assay [2] it was 31.3 µg/mL; in assay [3], 0.98 µg/mL; in assay [4] it was 0.49 µg/mL; in the assay on Escherichia coli 3082B, 0.24 µg/mL; in [12], 250 µg/mL. Moreover, the MIC with Escherichia coli 2722B came to 0.12 µg/mL; in assay [5], 0.12 µg/mL; in assay [6], 0.98 µg/mL; in [7] it was 500 µg/mL; against Escherichia coli 2721B it was 3.9 µg/mL; in assay [8] it was 0.98 µg/mL. The MIC in assay [9] worked out at 15.6 µg/mL; with Escherichia coli 3081B, 15.6 µg/mL; in the assay with Escherichia coli 1269B it was 62.5 µg/mL; with Proteus vulgaris 100, 7.8 µg/mL; in assay [10] it was 500 µg/mL; in assay [11], 7.8 µg/mL.
In the case of `CC1(C[n+]2ccccc2)SC2C(NC(=O)Cc3ccccc3)C(=O)N2C1C(=O)[O-]` (stereo not drawn) [Compound E, [2S-(2α,3α,5α,6β)]-1-[[2-carboxy-3-methyl-7-oxo-6-[(phenylacetyl)amino]-4-thia-1-azabicyclo-[3.2.0]hept-3-yl]methylpyridinium hydroxideinner salt], the MIC in [1] was determined as 3.9 µg/mL; in assay [2] it was 125 µg/mL; in [3], 125 µg/mL; in assay [4], 1.95 µg/mL; in the assay on Escherichia coli 3082B, 31.3 µg/mL; against Escherichia coli 2722B it was 31.3 µg/mL. Moreover, the minimum inhibitory concentration (MIC) in assay [5] amounted to 0.49 µg/mL; in assay [6], 0.24 µg/mL; in assay [7], 500 µg/mL; against Escherichia coli 2721B it was 31.3 µg/mL; in assay [8], 0.49 µg/mL; in [9], 125 µg/mL. Besides, the MIC with Escherichia coli 3081B was 125 µg/mL; against Escherichia coli 1269B it was 500 µg/mL; against Proteus vulgaris 100, more than 500 µg/mL; in assay [10] it was 62.5 µg/mL; in [11] it was 15.6 µg/mL.
As for `CC(=O)Oc1ccc(C(=O)OCC2(C)SC3C(NC(=O)Cc4ccccc4)C(=O)N3C2C(=O)O)cc1OC(C)=O` (stereo not drawn) [Compound H, [2S-(2α,3α,5α,6β)]-3-[[[3,4-bis(Acetyloxy)benzoyl]oxy]methyl]-3-methyl-7-oxo-6-[(phenylacetyl)amino]-4-thia-1-azabicyclo[3.2.0]heptane-2-carboxylic acid monosodium salt], the MIC in assay [1] is 1.95 µg/mL; in assay [2] it was 7.8 µg/mL; in assay [3], 62.5 µg/mL; in [4] it was 0.12 µg/mL; with Escherichia coli 3082B, 15.6 µg/mL; in [12], 31.5 µg/mL. Also, the MIC is 62.5 µg/mL against Escherichia coli 2722B; 0.12 µg/mL in assay [6]; 500 µg/mL in [7]; 500 µg/mL in the assay with Escherichia coli 2721B; 0.12 µg/mL in assay [8]; 31.5 µg/mL in assay [9]. In addition, the minimum inhibitory concentration (MIC) is more than 500 µg/mL with Escherichia coli 3081B, more than 500 µg/mL against Proteus vulgaris 100, 125 µg/mL in [10] and 7.8 µg/mL in assay [11].
